Measured values as given in publication PMC12131194, “Rational design, synthesis, and evaluation of novel polypharmacological compounds targeting NaV1.5, KV1.5, and K2P channels for atrial fibrillation” (The Journal of Biological Chemistry, 2025).

Columns and labels:
[1] = molecular target: T1, h NaV1.5 (Homo sapiens, UniProt Q14524, R1027Q); assay: TEVC recordings in X. laevis oocytes, NaV1.5; format: cell-based; conditions: for Ionic current block INa: from inhibition curves, used for simulation
T1 construct: expressed in transfected cells; host or cells: Xenopus laevis oocytes injected with cRNA
T1 sequence (Q14524 whole entry R1027Q): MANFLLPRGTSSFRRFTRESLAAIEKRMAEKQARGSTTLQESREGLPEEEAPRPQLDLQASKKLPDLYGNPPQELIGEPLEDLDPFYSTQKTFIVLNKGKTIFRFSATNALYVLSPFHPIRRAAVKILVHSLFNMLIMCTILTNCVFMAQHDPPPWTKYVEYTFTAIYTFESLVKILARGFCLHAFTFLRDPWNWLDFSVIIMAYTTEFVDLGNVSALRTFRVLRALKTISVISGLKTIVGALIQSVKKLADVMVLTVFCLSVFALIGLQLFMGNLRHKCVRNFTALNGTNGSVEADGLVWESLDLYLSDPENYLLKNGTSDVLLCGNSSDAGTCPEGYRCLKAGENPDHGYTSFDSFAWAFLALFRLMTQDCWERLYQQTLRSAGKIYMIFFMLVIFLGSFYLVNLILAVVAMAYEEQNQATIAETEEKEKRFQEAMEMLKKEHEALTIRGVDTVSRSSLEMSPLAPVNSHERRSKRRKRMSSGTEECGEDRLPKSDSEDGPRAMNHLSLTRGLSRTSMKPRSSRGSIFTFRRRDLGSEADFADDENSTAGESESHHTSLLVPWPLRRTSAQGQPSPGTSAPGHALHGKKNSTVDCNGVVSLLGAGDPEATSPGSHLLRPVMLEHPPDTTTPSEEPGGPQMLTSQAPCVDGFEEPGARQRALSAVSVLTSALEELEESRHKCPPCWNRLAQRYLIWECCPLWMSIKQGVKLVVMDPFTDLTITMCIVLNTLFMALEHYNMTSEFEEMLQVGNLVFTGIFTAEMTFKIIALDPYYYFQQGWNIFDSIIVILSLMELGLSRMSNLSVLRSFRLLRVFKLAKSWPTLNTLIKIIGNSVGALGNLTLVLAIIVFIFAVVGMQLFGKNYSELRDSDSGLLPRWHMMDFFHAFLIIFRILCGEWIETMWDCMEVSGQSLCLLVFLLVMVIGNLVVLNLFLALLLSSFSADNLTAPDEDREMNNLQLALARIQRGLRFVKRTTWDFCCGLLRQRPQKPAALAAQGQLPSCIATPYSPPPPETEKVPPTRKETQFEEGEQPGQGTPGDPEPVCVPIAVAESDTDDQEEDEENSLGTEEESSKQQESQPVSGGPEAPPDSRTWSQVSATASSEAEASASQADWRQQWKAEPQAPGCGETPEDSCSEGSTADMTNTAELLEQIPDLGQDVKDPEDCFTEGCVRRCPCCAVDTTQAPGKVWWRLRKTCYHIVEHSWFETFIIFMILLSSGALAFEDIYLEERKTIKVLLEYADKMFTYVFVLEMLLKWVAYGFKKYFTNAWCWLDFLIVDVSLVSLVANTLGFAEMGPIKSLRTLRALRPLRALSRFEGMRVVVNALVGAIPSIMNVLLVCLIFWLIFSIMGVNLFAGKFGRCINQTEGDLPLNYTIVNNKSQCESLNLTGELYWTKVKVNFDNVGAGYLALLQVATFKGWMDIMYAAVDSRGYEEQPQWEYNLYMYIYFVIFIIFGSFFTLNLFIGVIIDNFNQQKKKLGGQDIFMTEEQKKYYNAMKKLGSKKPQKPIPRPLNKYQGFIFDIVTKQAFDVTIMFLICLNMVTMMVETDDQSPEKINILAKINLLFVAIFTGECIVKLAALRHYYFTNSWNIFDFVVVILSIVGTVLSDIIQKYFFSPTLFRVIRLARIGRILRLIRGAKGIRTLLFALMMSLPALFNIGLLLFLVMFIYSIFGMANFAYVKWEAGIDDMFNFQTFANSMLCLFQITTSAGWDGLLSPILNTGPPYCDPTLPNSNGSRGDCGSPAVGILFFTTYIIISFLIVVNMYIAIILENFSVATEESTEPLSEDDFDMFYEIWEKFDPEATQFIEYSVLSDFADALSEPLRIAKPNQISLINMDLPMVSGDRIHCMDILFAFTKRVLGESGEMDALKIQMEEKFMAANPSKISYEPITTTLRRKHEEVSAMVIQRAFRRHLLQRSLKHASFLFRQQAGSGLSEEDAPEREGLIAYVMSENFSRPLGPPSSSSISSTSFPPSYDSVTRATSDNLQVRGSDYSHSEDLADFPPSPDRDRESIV
Description: To obtain X. laevis oocytes, the frogs were anesthetized with 2 g/L of tricaine methanesulfonate, and the ovarian lobes were mechanically separated with forceps. The oocytes were incubated for 120 min in an OR2 solution containing in mM: NaCl 82.5, KCl 2, MgCl2 1, HEPES 5 (pH 7.5) supplemented with 2 mg/ml of collagenase II (Sigma) to remove residual connective tissue and obtain individual oocytes. Subsequently, the oocytes were washed with a ND96 solution containing in mM: NaCl 96, KCl 2, CaCl2 1.8, MgCl2 1, HEPES 5 (pH 7.5, adjusted with NaOH) and stored at 18 °C in ND96 solution supplemented with 1 ml of gentamicin (50 mg/L), sodium pyruvate (275 mg/L) and (90 mg/L) theophylline (inhibits further oocyte maturation) before and after RNA injection.
(§1) In order to overexpress the channel in the oocyte, each of the channels to be measured was subcloned (complementary DNA (cDNA); human TASK-1 (KCNK3, NM_002246), h KV1.5 (KCNA5, NM_002234), h NaV1.5 (hH1, M77235), TASK-4/TALK-2 (KCNK17, NM_AF358910), TREK-1 (KCNK2, AF004711) and Kir2.1 (KCNJ2, NM_017296) into pSGEM, pBF1 or pSP64 expression vector, and the cDNA was linearized with NheI or MluI. Complementary RNA (cRNA) was synthesized with the mMESSAGE mMACHINE-Kit (Ambion). The quality of the cRNA was tested on an agarose gel by electrophoresis. cRNA was quantified using a UV-Vis spectrophotometer (NanoDrop 2000). Subsequently, the channel was transfected in the oocytes in stages V and VI, for which 50 nl (TASK-1, KV1.5 or TREK-1), 10 ng (NaV1.5 or TASK-4) o 2.5 ng (Kir2.1) per oocyte of cRNA was injected with a NanojectII microinjector (Drummond Scientific). The oocytes were stored in 24-well plates for 24 to 48 h at 18 °C. After this time, the overexpression of each channel was monitored through electrophysiology.
Two-electrode voltage clamp measurements were performed 24 or 48 h after cRNA injection at room temperature (20–22 °C) in ND96 recording solution with a TurboTEC-10CD (npi) amplifier and a Digidata 1550B (for TASK-1 and KV1.5) and 1440A (for NaV1.5) A/D converter from Axon Instruments. Micropipettes were fabricated from GB 150 TF-8P borosilicate glass capillaries (Science Products) elongated in a DMZ-Universal Puller (Zeitz, Germany). […] ND96 was used as bath solution. Data acquisition was performed using Clampex 10 software (Axon Instruments), and data were analyzed with ClampFit 10 (Axon Instruments) and Origin 7 (Origin Lab Corporation).
For compound inhibition testing, from a holding potential of −80 mV a first test pulse to 0 mV of 1 s duration was followed by a repolarization step at −80 mV for 1 s, directly followed by another 1 s test pulse at +40 mV. The sweep time interval was 10 s for KV1.5 and TASK-1 channels. For the NaV1.5 channel, the block was analyzed with voltage steps from a holding potential of −80 mV. A first depolarizing pulse to −30 mV of 50 ms duration was applied, followed by a 5 ms step to −80 mV. The sweep time interval was 5 s. The compounds were applied at different concentrations to determine the half-maximal inhibitory concentration (IC50), using a fit to the Hill equation.
To test for a putative voltage-dependence of the block by the compound 6f in KV1.5, a 1.5 s voltage step protocol from −80 to +80 mV with +20 mV increments was used. The holding potential was −80 mV and the sweep time interval was 10 s. Currents were analyzed at the end of the voltage pulse. For TASK-1, voltage-dependence of block was probed using a high-potassium solution (KD96) containing in mM: KCl 96, NaCl 2, CaCl2 1.8, MgCl2 1, HEPES 5, (pH 7.5, adjusted with KOH). From a holding potential of 0 mV, voltage was stepped from −80 mV to +80 mV for 1.5 s in +20 mV steps every 10 s. To determine the current-voltage relationship of the NaV1.5 channel, the voltage was stepped for 50 ms from a holding potential of −80 mV to −70 mV to +80 mV in +10 mV increments every 5 s. The peak currents were subsequently plotted against the respective applied voltages.

[2] = molecular target: T2, TREK-1 (Homo sapiens, UniProt O95069); assay: TEVC selectivity in X. laevis oocytes, TREK-1; format: cell-based; conditions: mean ± SD, n = 4, read-out: Effect on TREK-1 (inhibition; negative = activating)
T2 construct: expressed in transfected cells; host or cells: Xenopus laevis oocytes injected with cRNA
T2 sequence (O95069 1-426): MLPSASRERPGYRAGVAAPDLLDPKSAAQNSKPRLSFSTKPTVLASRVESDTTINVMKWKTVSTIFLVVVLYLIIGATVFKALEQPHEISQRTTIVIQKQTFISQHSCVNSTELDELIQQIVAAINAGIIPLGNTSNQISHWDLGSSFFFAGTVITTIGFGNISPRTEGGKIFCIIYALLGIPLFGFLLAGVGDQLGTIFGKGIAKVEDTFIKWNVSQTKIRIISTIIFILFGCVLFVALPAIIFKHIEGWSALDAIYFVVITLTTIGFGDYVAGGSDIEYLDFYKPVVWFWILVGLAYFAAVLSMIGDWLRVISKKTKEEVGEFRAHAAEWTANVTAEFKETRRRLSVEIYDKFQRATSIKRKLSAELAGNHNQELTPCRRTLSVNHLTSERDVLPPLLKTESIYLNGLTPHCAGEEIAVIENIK
Description: After confirming compound 6f simultaneous blockade of TASK-1, KV1.5, and NaV1.5, other cardiac channels (Kir2.1, TREK-1, TASK-4) were tested for selectivity at 100 μM (Fig. 8).
To obtain X. laevis oocytes, the frogs were anesthetized with 2 g/L of tricaine methanesulfonate, and the ovarian lobes were mechanically separated with forceps. The oocytes were incubated for 120 min in an OR2 solution containing in mM: NaCl 82.5, KCl 2, MgCl2 1, HEPES 5 (pH 7.5) supplemented with 2 mg/ml of collagenase II (Sigma) to remove residual connective tissue and obtain individual oocytes. […]
as §1, with “Subsequently, the channel was transfected in the oocytes in stages V and VI, for which 50 nl (TASK-1, KV1.5 or TREK-1), 10 ng (NaV1.5 or TASK-4) o 2.5 ng (Kir2.1) per oocyte of cRNA was injected with a NanojectII microinjector (Drummond Scientific). The oocytes were stored in 24-well plates for 24 to 48 h at 18 °C.” left out, “electrophysiology. […]” for “electrophysiology.”

**Q.** With `CCCCN(CCCC)CC(=O)Nc1ccc(OC)cc1OC` [Compound 6f, 2-(dibutylamine)-N-(2,4-dimethoxiphenyl)acetamide] as the compound, how does the “Ionic current block INa” value ([1]; 1 μM) read?
**A.** 16%

**Q.** What about the “Ionic current block INa” value ([1]; 10 μM) of the same compound?
**A.** 30%

**Q.** What about the “Ionic current block INa” value ([1]; 100 μM) of the same compound?
**A.** 65%

**Q.** What about the inhibition at 100 µM ([1]; 100 μM, −30 mV, oocytes, mean ± SD) of the same compound?
**A.** 62.4 ± 20.6%

**Q.** And the “Voltage-dependence of block of NaV1.5” value ([1]; oocytes, 100 μM)?
**A.** small but significant variations

**Q.** And the “Frequency-dependent inhibition of NaV1.5” value ([1]; oocytes, 100 μM, 1, 2 and 3 Hz)?
**A.** did not observe a significant frequency-dependent inhibition

**Q.** What about the inhibition at 100 µM [2] of the same compound?
**A.** -8.71%
